Patent US11427533B2, “Crystalline polymorphs of bardoxolone methyl” (PLIVA HRVATSKA d.o.o., priority 2017, dated 2022)
In brackets after ≈: the same amount, converted by molar mass. Entries after “also recorded” stand apart in the source; their conditions may differ. Like-named read-outs stand apart in the source and are kept apart here.

How the values were obtained:
[1] = Solubility in aqueous buffers, shaker at 37° C., filtrate by UHPLC; assay type: physicochemical; conditions: for Concentration mg/mL (UHPLC) / solubility thermodynamic at 2 h: 150 mg/8 mL suspension; for solubility thermodynamic at 2 h: 37 °C, thermodynamic from solid, read-out: Concentration mg/mL (UHPLC); for Solubility compared with crystalline form A / Solubility compared with non-crystalline (amorphous) form B: in words
Description: UHPLC analyses was performed on Agilent 1290 Infinity LC system with a DAD. UV spectra were recorded at 190-400 nm, with the working wavelength of 240 nm. The column used was Waters Acquity UPLC BEH Phenyl (100 mm×2.1 mm i.d., particle size 1.7 μm), at the column temperature of 50° C. Mobile phases employed for gradient elution were water with 0.1% of formic acid as mobile phase A and acetonitrile with 0.1% of formic acid as mobile phase B. Gradient conditions for the analysis were: isocratic flow from 0.0 to 0.5 min with 40% of mobile phase B; linear gradient from 40% of mobile phase B up to 90% of mobile phase B from 0.5 to 4.0 min; isocratic flow at 90% of mobile phase B from 4.0 to 4.5 min; linear gradient down to 40% of mobile phase B from 4.5 to 5.0 min and finally, reconditioning the column for 0.5 min on starting conditions. 1 μL to 10 μL of sample solution was injected at a flow rate of 0.7 mL min^−1.
Solubility of Bardoxolone methyl form D and the patent forms in U.S. Pat. Nos. 8,309,601 and 8,088,824 were determined in aqueous buffers and water. Suspension of tested substance (150 mg/8 mL) was stirred on a shaker (200 rpm) in a closed vial at 37° C. Suspension was filtered and concentration of Bardoxolone methyl in filtrate was determined by UHPLC. Undissolved residue was analyzed by XRPD.

[2] = as indicated in WO2010093944; cited from earlier work
[3] = Physical stability of Form D (pressure, heating, sauna), form checked by XRPD; assay type: physicochemical; conditions: for XRD form after transformation by sauna (closed flask, RT): 1 day; for XRD form after pressure: 1 min
Description: Crystalline Form D of Bardoxolone is also stable to conversion after exposure to an atmosphere containing organic solvents, for example ethylene glycol, in a closed vessel at room temperature for 24 hours). Such stability may enable the use of form D in variety of preparation methods including preparation of solid dispersion by spray drying, wet granulation etc.
Sample after being powdered in a mortar and pestle is applied directly on a silicon plate holder. The X-ray powder diffraction pattern was measured with Philips X'Pert PRO X-ray powder diffractometer, equipped with Cu irradiation source=1.54184 Å (Ångström), X'Celerator (2.022° 2θ) detector.
The physical stability of Form D was investigated at different conditions: in heating, under pressure and by sauna.

[4] = buffer pH 1.2 (0.063M HCl + 2.0 g/L NaCl), 2 h at 37° C.
[5] = buffer pH 4.5 (0.05M acetate buffer PhEur), 2 h at 37° C.

Structure (SMILES): COC(=O)[C@]12CCC(C)(C)C[C@H]1[C@H]1C(=O)C=C3[C@]4(C)C=C(C#N)C(=O)C(C)(C)[C@@H]4CC[C@@]3(C)[C@]1(C)CC2 [Form A, Methyl-2-cyano-3,12-dioxooleana-1,9(11)-dien-28-oic acid, reference compound]
- Concentration mg/mL (UHPLC) [1, 4]: LTQL
- Concentration mg/mL (UHPLC) ([1]; buffer pH 1.2 (0.063M HCl + 2.0 g/L NaCl), 4 h at 37° C.): LTQL
- Concentration mg/mL (UHPLC) [1, 5]: LTQL
- Oral bioavailability (in words) [2]: relatively low oral bioavailability

Structure (SMILES): COC(=O)[C@]12CCC(C)(C)C[C@H]1[C@H]1C(=O)C=C3[C@]4(C)C=C(C#N)C(=O)C(C)(C)[C@@H]4CC[C@@]3(C)[C@]1(C)CC2 [Form B, Methyl-2-cyano-3,12-dioxooleana-1,9(11)-dien-28-oic acid, reference compound]
- solubility thermodynamic at 2 h ([1]; HCl/NaCl buffer, pH 1.2, simulated gastric fluid, buffer pH 1.2 (0.063M HCl + 2.0 g/L NaCl), 2 h at 37° C.): 0.08 µg/mL
- solubility thermodynamic at 2 h ([1]; acetate buffer, pH 4.5, aqueous buffer, buffer pH 4.5 (0.05M acetate buffer PhEur), 2 h at 37° C.): 0.04 µg/mL (≈ 0.0791 µM)
- Oral bioavailability (in words) [2]: markedly superior oral bioavailability compared to Form A

Structure (SMILES): COC(=O)[C@]12CCC(C)(C)C[C@H]1[C@H]1C(=O)C=C3[C@]4(C)C=C(C#N)C(=O)C(C)(C)[C@@H]4CC[C@@]3(C)[C@]1(C)CC2 [Form D, Methyl-2-cyano-3,12-dioxooleana-1,9(11)-dien-28-oic acid]
- Concentration mg/mL (UHPLC) [1, 4]: 0.00004 mg/mL
- Concentration mg/mL (UHPLC) [1, 5]: 0.00002 mg/mL
- Solubility compared with crystalline form A [1]: improved solubility
- Solubility compared with non-crystalline (amorphous) form B [1]: comparable solubility
- Solubility compared with crystalline form A ([1]; listed as form D): higher
- Solubility compared with non-crystalline (amorphous) form B ([1]; listed as form D): comparable
- XRD form after heating (open vessel) ([3]; 100° C., 5 min): Form D
- XRD form after transformation by sauna (closed flask, RT) ([3]; ethylene glycol): Form D
- Polymorphic stability, conversion to other forms (in words) ([3]; pressure 1 t or 2 t 1 min, 100° C. 5 min, water sauna RT 90%-100% RH 24 hours, ethylene glycol atmosphere RT 24 hours): maintained; also recorded: resistant to conversion to any other forms
- XRD form after pressure ([3]; pressure 1 t): Form D
- XRD form after pressure ([3]; pressure 2 t): Form D
- XRD form after transformation by sauna (closed flask, RT) ([3]; water): Form D
